Results from patent US8143398B1, “Activity of new N-acylated ciprofloxacin derivatives against faculative intracellular bacteria” (University of South Florida, priority 2010, dated 2012).

How the values were obtained:
[1] = test system: Bartonella strains; assay: Agar dilution testing (MIC); format: cell-based; settings: growth read after 1 week
Method: Agar was prepared with the N-acyl ciprofloxacin-derived compounds at concentrations of 10 μg/mL, 1.0 μg/mL and 0.1 μg/mL. An equivalent volume of DMSO was added to a control plate. Nine strains of Bartonella were harvested from 4-day-old plates, resuspended in 1.0 mL sterile HIB and adjusted to a McFarland 2.0 turbidity standard. Using a specific template, 12.5 μL of broth suspensions of each Bartonella strain was pipetted onto each of the fluoroquinalone compound-containing chocolate agar plates and the DMSO control plate. After 1 week, the growth of each Bartonella strain was examined and recorded.

[2] = test system: intracellular Bartonella henselae Houston-1; assay: Assay for intracellular activity in infected HMEC-1 cells; format: cell-based
Method: HMEC-1 cells were maintained in MCDB131 medium supplemented with 10% FBS, 5% L-glutamine, 10 ng/mL epidermal growth factor, 1 μg/mL hydrocortisone, penicillin/streptomycin and amphotericin B. HMEC-1 cells were infected with Bartonella henselae Houston-1 at a multiplicity of infection (MOI) of 100 for 4 hour in medium without ciprofloxacin-derived compounds. After infection, the cells were washed 2× with PBS and then treated with gentamicin (200 μg/mL) for 1 hour. Infected cells were washed as before and medium containing ciprofloxacin-derived compound was added at concentrations of 0.1 μg/mL, 1.0 μg/mL and 10 μg/mL. Infected cells were then incubated for 24, 48 and 96 hour. Ciprofloxacin-derived compounds were then removed, and the infected cells were washed as before and lysed with 0.1% saponin Lysates were plated on chocolate agar. After incubation for 8 days, CFU's were counted to determine the number of viable intracellular bacteria.

Compound	MIC (minimal inhibitory concentration) [1]	activity against intracellular bacteria [2]	decrease in CFUs (intracellular colony forming units) ([2]; infected HMEC cells treated with 1.0 μg/mL for 24 hours)
CC(=O)N1CCN(c2cc3c(cc2F)c(=O)c(C(=O)O)cn3C2CC2)CC1 [RC4-125]	1.0 to 10.0 µg/mL	significant activity against intracellular bacteria	
CCC(C)(C)C(=O)N1CCN(c2cc3c(cc2F)c(=O)c(C(=O)O)cn3C2CC2)CC1 [RC4-143]	0.1 to 0.5 µg/mL	significant activity against intracellular bacteria	
CCC(=O)N1CCN(c2cc3c(cc2F)c(=O)c(C(=O)O)cn3C2CC2)CC1 [RC4-147]		significant activity against intracellular bacteria	greater than a tenfold decrease
CCCC(=O)N1CCN(c2cc3c(cc2F)c(=O)c(C(=O)O)cn3C2CC2)CC1 [RC5-29]		significant activity against intracellular bacteria	
CC(C)(C)C(=O)N1CCN(c2cc3c(cc2F)c(=O)c(C(=O)O)cn3C2CC2)CC1 [RC5-32]		significant activity against intracellular bacteria	
CC(=O)N1CCN(c2cc3c(cc2F)c(=O)c(C(=O)N2CCN(c4cc5c(cc4F)c(=O)c(C(=O)O)cn5C4CC4)CC2)cn3C2CC2)CC1 [RC5-69]		significant activity against intracellular bacteria	
